# Measured values as given in patent US10435405B2, “Pyrazolopyridine compounds and uses thereof” (Incyte Corporation, priority 2016, dated 2019).
# Target: HPK1 (Homo sapiens (Human), UniProt Q92918)
# Test: HPK1 Kinase Binding Assay
# Procedure, shortened: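 This is a LanthaScreen tracer-binding format: a tracer 222/Eu-anti-GST antibody mix (18 nM and 4 nM solution) is added to active HPK1 (4 nM solution) with 3-fold, 11-point compound dilutions. Incubation is 1 h at 25 °C in HEPES pH 7.5 buffer before reading, and Ki is determined.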
# Sequence of HPK1 (Q92918 1-346): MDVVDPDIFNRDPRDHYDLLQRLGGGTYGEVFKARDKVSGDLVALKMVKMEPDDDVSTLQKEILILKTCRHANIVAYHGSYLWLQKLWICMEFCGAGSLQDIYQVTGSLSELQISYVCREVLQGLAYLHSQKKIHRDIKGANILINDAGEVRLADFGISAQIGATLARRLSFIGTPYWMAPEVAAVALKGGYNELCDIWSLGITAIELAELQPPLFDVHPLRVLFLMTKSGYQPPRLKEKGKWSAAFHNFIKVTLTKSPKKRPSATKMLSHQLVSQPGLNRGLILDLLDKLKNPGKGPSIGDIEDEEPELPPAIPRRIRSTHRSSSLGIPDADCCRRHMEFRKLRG
row,Compound,Ki
1,"Cc1c(CNCC2(C)CC2)ccc(F)c1-c1cc2c(-c3cnn(C)c3)n[nH]c2cn1 [Example 224, N-(4-Fluoro-2-methyl-3-(3-(1-methyl-1H-pyrazol-4-yl)-1H-pyrazolo[3,4-c]pyridin-5-yl)benzyl)-1-(1-methylcyclopropyl)methanamine]",≤ 100 nM
2,"CNCc1ccc(F)c(-c2cc3c(-c4cnn(C)c4)n[nH]c3cn2)c1C(F)(F)F [Example 225, 1-(4-Fluoro-3-(3-(1-methyl-1H-pyrazol-4-yl)-1H-pyrazolo[3,4-c]pyridin-5-yl)-2-(trifluoromethyl)phenyl)-N-methylmethanamine]",≤ 100 nM
3,"Cc1cc(C2COCCN2)cc(F)c1-c1cc2c(-c3cnn(C)c3)n[nH]c2cn1 (centres unmarked) [Example 234, 3-(3-Fluoro-5-methyl-4-(3-(1-methyl-1H-pyrazol-4-yl)-1H-pyrazolo[3,4-c]pyridin-5-yl)phenyl)morpholine]",≤ 100 nM
4,"CNCc1cc(F)c(-c2cc3c(-c4cnn(C)c4)n[nH]c3cn2)c(C(F)F)c1 [Example 235, 1-(3-(Difluoromethyl)-5-fluoro-4-(3-(1-methyl-1H-pyrazol-4-yl)-1H-pyrazolo[3,4-c]pyridin-5-yl)phenyl)-N-methylmethanamine]",≤ 100 nM
5,"CCNCc1ccc(F)c(-c2cc3c(-c4cnn(C)c4)n[nH]c3cn2)c1C [Example 236, N-(4-Fluoro-2-methyl-3-(3-(1-methyl-1H-pyrazol-4-yl)-1H-pyrazolo[3,4-c]pyridin-5-yl)benzyl)ethanamine]",≤ 100 nM
6,"CCNCc1cccc(-c2cc3c(-c4cnn(C)c4)n[nH]c3cn2)c1C(F)(F)F [Example 237, N-(3-(3-(1-Methyl-1H-pyrazol-4-yl)-1H-pyrazolo[3,4-c]pyridin-5-yl)-2-(trifluoromethyl)benzyl)ethanamine]",≤ 100 nM
7,"CNC1CCCc2c1ccc(F)c2-c1cc2c(-c3ccc(N4CCN(C)CC4)nc3)n[nH]c2cn1 (centres unmarked) [Example 240, 6-Fluoro-N-methyl-5-(3-(6-(4-methylpiperazin-1-yl)pyridin-3-yl)-1H-pyrazolo[3,4-c]pyridin-5-yl)-1,2,3,4-tetrahydronaphthalen-1-amine]",≤ 100 nM
8,"CN1CCN(c2ccc(-c3n[nH]c4cnc(-c5c(F)ccc6c5CCCC6N)cc34)cc2)CC1 (centres unmarked) [Example 241, 6-Fluoro-5-(3-(4-(4-methylpiperazin-1-yl)phenyl)-1H-pyrazolo[3,4-c]pyridin-5-yl)-1,2,3,4-tetrahydronaphthalen-1-amine]",≤ 100 nM
